According to article PMC6253839, “Screening of Agelasine D and Analogs for Inhibitory Activity against Pathogenic Protozoa; Identification of Hits for Visceral Leishmaniasis and Chagas Disease” (Molecules, 2009):
“Also recorded” adds a separate entry of the source.

How the values were obtained:
[1] = test system: P. falciparum GHA-strain (chloroquine-suceptible); experiment: Antiplasmodial activity, Malstat method; format: cell-based, Plasmodium falciparum; conditions: Plasmodium falciparum; GHA-strain, 72 h; TDR hit criterion <0.2 μg/mL; read-out: P. falciparum IC50
[2] = test system: Leishmania infantum amastigotes (MHOM/ET 67); experiment: Antileishmanial activity, amastigotes in primary peritoneal mouse macrophages; format: cell-based
Description: Leishmania infantum amastigotes (MHOM/ET 67) were collected from an infected donor hamster and used to infect primary peritoneal mouse macrophages. To determine in vitro antileishmanial activity, 3×10^4 macrophages were seeded in each well of a 96-well plate. After 48 h outgrowth, 5×10^4 amastigotes/well were added and incubated for 2 h at 37 °C. […] Parasite burdens were determined microscopically after Giemsa staining and expressed as a percentage of the blank controls without compound.

[3] = test system: T. cruzi Tulahuen CL2 strain (nifurtimox-sensitive); experiment: Antitrypanosomal activity, T. cruzi on MRC-5 cells, β-galactosidase readout; format: cell-based, Trypanosoma cruzi
Description: To determine in vitro anti-trypanosomal activity, 4×10^3 MRC-5 cells and 4×10^4 parasites were added to each well of test plate with compound. […] The color reaction was read at 540 nm and absorbance values were expressed as a percentage of the blank controls.

[4] = Cytotoxicity assay, resazurin; format: cell-based; conditions: human, MRC-5 SV2 cells (human fetal lung fibroblasts)
Description: Cell viability was determined after addition of resazurin.

Staphyllococcus aureus = test system: Staphyllococcus aureus; design: method as in PMID 17442577; conditions: previous studies; cited from earlier work
Escherichia coli = test system: Escherichia coli; design: method as in PMID 17442577; conditions: previous studies; cited from earlier work
[5] = test system: Mycobacterium tuberculosis; conditions: previous studies; cited from earlier work

## CC(C)=CCC/C(C)=C/CC/C(C)=C/CC/C(C)=C/Cn1cc[n+](C)c1 [Compound 5]
[1]
  IC50: 0.97 µg/mL
[2]; Leishmania infantum, Macrophage, intracellular amastigotes, 120 h, TDR hit criterion <0.5 μg/mL, read-out: L. infantum IC50
  IC50: < 0.11 µg/mL
[2]; criterion IC50 <0.5 μg/mL and SI >20
  hit for leishmaniasis according to TDR: classifies as a hit; also recorded: identified as hits
[3]
  hit for Chagas disease according to TDR: classified as hits; also recorded: identified as hits
[3]; Trypanosoma cruzi, TULAHUEN, MRC5, 168 h, read-out: T. cruzi IC50
  IC50: < 0.11 µg/mL
[4]
  IC50 at 72 h: 7.6 µg/mL
Staphyllococcus aureus
  antibacterial activity against S. aureus, in words: reasonably active
Escherichia coli
  antibacterial activity against E. coli, in words: not against
[5]
  antibacterial activity against M. tuberculosis, in words: not against
